Measured values as given in patent US20020137929A1, “1 - (3-heterocyclylphenyl) isothiourea, -isourea, -guanidine and -amidine herbicidal agents” (Intellectual Property Department, BASF Aktiengesellschaft, priority 1998, published 2002).

Assays:
ECHCG (Barnyardgrass) [1] = test: Preemergence herbicidal evaluation; type: in vivo, Echinochloa crus-galli; details: rated 4-5 weeks after treatment; for ECHCG rating: preemergence, 0-9 scale
Text: (§1) Results of herbicide evaluation are expressed on a rating scale (0-9). The scale is based upon a visual observation of plant stand, vigor, malformation, size, chlorosis and overall plant appearance as compared with a control.
(§2) The preemergence herbicidal activity of the test compounds of the present invention is exemplified by the following tests in which the seeds of a variety of monocotyledonous and dicotyledonous plants are separately mixed with potting soil and planted on top of approximately one inch of soil in separate pint cups. After planting, the cups are sprayed with the selected aqueous acetone solution containing test compound in sufficient quantity to provide the equivalent of about 0.0156 to 0.500 kg per hectare of test compound per cup. The treated cups are then placed on greenhouse benches, watered and cared for in accordance with conventional greenhouse procedures. From four to five weeks after treatment, the tests are terminated and each cup is examined and rated according to the rating system provided in Example 37.
(§3) The compounds evaluated are reported by compound number given in Example 37.

ZEAMX (Corn, Field) [2] = test: Preemergence herbicidal evaluation; type: in vivo, Zea mays; details: rated 4-5 weeks after treatment; for ZEAMX rating: preemergence, 0-9 scale
In short: (§4)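 Seeds were mixed with potting soil and planted on about one inch of soil, then sprayed with test compound in aqueous acetone at about 0.0156 to 0.500 kg per hectare. Plants grew under standard greenhouse care and were visually rated 0-9 against untreated controls 4-5 weeks post-treatment.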

ABUTH (Velvetleaf) [3] = test: Preemergence herbicidal evaluation; type: in vivo, Abutilon theophrasti; details: rated 4-5 weeks after treatment; for ABUTH rating: preemergence, 0-9 scale
Text: as §1, §2, §3

[4] = tested on: IPOHE (Morningglory, Ivyleaf); test: Preemergence herbicidal evaluation; type: in vivo, Ipomoea hederacea; details: rated 4-5 weeks after treatment; for IPOHE rating: preemergence, 0-9 scale
Text: as §1, §2, §3

[5] = tested on: IPOHE (Morningglory, Ivyleaf); test: Postemergence herbicidal evaluation; type: in vivo, Ipomoea hederacea; details: postemergence
In short: (§5)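 Young plants, roughly two weeks from seeding, receive the active ingredient as a sprayed dispersion (acetone/water 50/50, 0.5% TWEEN 20) at 40 psi. Doses span about 0.0156 to 0.500 kg/ha. A visual score from 0 to 9 compares treated with control plants four to five weeks on.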

ORYSAT (Rice, Tebonnet) = test: Postemergence herbicidal evaluation; type: in vivo, Oryza sativa, (L.) Tebonnet; details: postemergence
In short: as §5

SETVI (Foxtail, Green) = test: Postemergence herbicidal evaluation; type: in vivo, Setaria viridis; details: postemergence
In short: as §5

ABUTH (Velvetleaf) [6] = test: Postemergence herbicidal evaluation; type: in vivo, Abutilon theophrasti; details: postemergence
In short: as §5

ECHCG (Barnyardgrass) [7] = test: Postemergence herbicidal evaluation; type: in vivo, Echinochloa crus-galli; details: postemergence
In short: as §5

[8] = tested on: GLXMAW (Soybean, Williams); test: Preemergence herbicidal evaluation; type: in vivo, Glycine max, (L.) Merr. cv Williams; details: rated 4-5 weeks after treatment; for GLXMAW rating: preemergence, 0-9 scale
Text: as §1, §2, §3

[9] = tested on: TRZAWR (Wheat, Winter, cv Riband); test: Preemergence herbicidal evaluation; type: in vivo, Triticum aestivum; details: rated 4-5 weeks after treatment; for TRZAWR rating: preemergence, 0-9 scale
In short: as §4

[10] = tested on: CHEAL (Lambsquarters, Common); test: Postemergence herbicidal evaluation; type: in vivo, Chenopodium album; details: postemergence
In short: as §5

ZEAMX (Corn, Field) [11] = test: Postemergence herbicidal evaluation; type: in vivo, Zea mays; details: postemergence
In short: as §5

CASOB (Sicklepod) = test: Preemergence herbicidal evaluation; type: in vivo, Cassia obtusifolia; details: rated 4-5 weeks after treatment; for CASOB rating: preemergence, 0-9 scale
In short: as §4

[12] = tested on: CHEAL (Lambsquarters, Common); test: Preemergence herbicidal evaluation; type: in vivo, Chenopodium album; details: rated 4-5 weeks after treatment; for CHEAL rating: preemergence, 0-9 scale
Text: as §1, §2, §3

Q: Which ECHCG rating (ECHCG (Barnyardgrass) [1]; 0.0313 kg/ha) does the source give for `C=CCOC(=O)CN1C(=O)CSC1=Nc1cc(-n2c(=O)cc(C(F)(F)F)n(C)c2=O)c(F)cc1Cl` [Compound 106, Allyl 2-{{2-chloro-5-[3,6-dihydro-3-methyl-2,6-dioxo-4-(trifluoromethyl)-1(2H)-pyrimidinyl]-4-fluorophenyl}imino}-4-oxo-3-thiazolidineacetate] here?
A: 1.0

Q: What about the ECHCG rating (ECHCG (Barnyardgrass) [1]; 0.0625 kg/ha) of the same compound?
A: 1.5

Q: What about the ECHCG rating (ECHCG (Barnyardgrass) [1]; 0.1250 kg/ha) of the same compound?
A: 2.0

Q: What about the ECHCG rating (ECHCG (Barnyardgrass) [1]; 0.2500 kg/ha) of the same compound?
A: 7.0

Q: And the “Preemergence herbicidal rating ECHCG” value (ECHCG (Barnyardgrass) [1]; rate 0.0156 kg/ha)?
A: 0.0

Q: What about the ZEAMX rating (ZEAMX (Corn, Field) [2]; 0.0313 kg/ha) of the same compound?
A: 1.0

Q: What about the ZEAMX rating (ZEAMX (Corn, Field) [2]; 0.0625 kg/ha) of the same compound?
A: 2.5

Q: And the ZEAMX rating (ZEAMX (Corn, Field) [2]; 0.1250 kg/ha)?
A: 4.0

Q: What about the ZEAMX rating (ZEAMX (Corn, Field) [2]; 0.2500 kg/ha) of the same compound?
A: 5.0

Q: And the “Preemergence herbicidal rating ZEAMX” value (ZEAMX (Corn, Field) [2]; rate 0.0156 kg/ha)?
A: 0.0

Q: What about the ABUTH rating (ABUTH (Velvetleaf) [3]; 0.0313 kg/ha) of the same compound?
A: 6.5

Q: And the ABUTH rating (ABUTH (Velvetleaf) [3]; 0.0625 kg/ha)?
A: 8.0

Q: And the ABUTH rating (ABUTH (Velvetleaf) [3]; 0.1250 kg/ha)?
A: 9.0

Q: And the ABUTH rating (ABUTH (Velvetleaf) [3]; 0.2500 kg/ha)?
A: 9.0

Q: What about the “Preemergence herbicidal rating ABUTH” value (ABUTH (Velvetleaf) [3]; rate 0.0156 kg/ha) of the same compound?
A: 5.0

Q: What about the IPOHE rating ([4]; 0.0313 kg/ha) of the same compound?
A: 2.5

Q: And the IPOHE rating ([4]; 0.0625 kg/ha)?
A: 7.0

Q: What about the IPOHE rating ([4]; 0.1250 kg/ha) of the same compound?
A: 7.5

Q: What about the IPOHE rating ([4]; 0.2500 kg/ha) of the same compound?
A: 9.0

Q: What about the “Preemergence herbicidal rating IPOHE” value ([4]; rate 0.0156 kg/ha) of the same compound?
A: 2.0

Q: What about the “herbicidal rating IPOHE” value ([5]; rate 0.0158 kg/ha) of the same compound?
A: 9.0

Q: What about the “herbicidal rating IPOHE” value ([5]; rate 0.0315 kg/ha) of the same compound?
A: 9.0

Q: What about the “herbicidal rating IPOHE” value ([5]; rate 0.0630 kg/ha) of the same compound?
A: 9.0

Q: What about the “herbicidal rating ORYSAT” value (ORYSAT (Rice, Tebonnet); rate 0.0158 kg/ha) of the same compound?
A: 2.0

Q: And the “herbicidal rating ORYSAT” value (ORYSAT (Rice, Tebonnet); rate 0.0315 kg/ha)?
A: 2.5

Q: What about the “herbicidal rating ORYSAT” value (ORYSAT (Rice, Tebonnet); rate 0.0630 kg/ha) of the same compound?
A: 4.0

Q: What about the “herbicidal rating SETVI” value (SETVI (Foxtail, Green); rate 0.0158 kg/ha) of the same compound?
A: 4.0

Q: And the “herbicidal rating SETVI” value (SETVI (Foxtail, Green); rate 0.0315 kg/ha)?
A: 3.0

Q: And the “herbicidal rating SETVI” value (SETVI (Foxtail, Green); rate 0.0630 kg/ha)?
A: 9.0

Q: And the “herbicidal rating ABUTH” value (ABUTH (Velvetleaf) [6]; rate 0.0158 kg/ha)?
A: 9.0

Q: What about the “herbicidal rating ABUTH” value (ABUTH (Velvetleaf) [6]; rate 0.0315 kg/ha) of the same compound?
A: 9.0

Q: And the “herbicidal rating ABUTH” value (ABUTH (Velvetleaf) [6]; rate 0.0630 kg/ha)?
A: 9.0

Q: And the “herbicidal rating ECHCG” value (ECHCG (Barnyardgrass) [7]; rate 0.0158 kg/ha)?
A: 2.0

Q: What about the “herbicidal rating ECHCG” value (ECHCG (Barnyardgrass) [7]; rate 0.0315 kg/ha) of the same compound?
A: 2.0

Q: And the “herbicidal rating ECHCG” value (ECHCG (Barnyardgrass) [7]; rate 0.0630 kg/ha)?
A: 7.0

Q: What about the GLXMAW rating ([8]; 0.0313 kg/ha) of the same compound?
A: 1.5

Q: What about the GLXMAW rating ([8]; 0.0625 kg/ha) of the same compound?
A: 2.0

Q: And the GLXMAW rating ([8]; 0.1250 kg/ha)?
A: 3.5

Q: And the GLXMAW rating ([8]; 0.2500 kg/ha)?
A: 5.0

Q: What about the “Preemergence herbicidal rating GLXMAW” value ([8]; rate 0.0156 kg/ha) of the same compound?
A: 1.0

Q: What about the TRZAWR rating ([9]; 0.0313 kg/ha) of the same compound?
A: 0.0

Q: What about the TRZAWR rating ([9]; 0.0625 kg/ha) of the same compound?
A: 2.0

Q: What about the TRZAWR rating ([9]; 0.1250 kg/ha) of the same compound?
A: 3.0

Q: What about the TRZAWR rating ([9]; 0.2500 kg/ha) of the same compound?
A: 5.0

Q: And the “Preemergence herbicidal rating TRZAWR” value ([9]; rate 0.0156 kg/ha)?
A: 0.0

Q: What about the “herbicidal rating CHEAL” value ([10]; rate 0.0158 kg/ha) of the same compound?
A: 7.0

Q: And the “herbicidal rating CHEAL” value ([10]; rate 0.0315 kg/ha)?
A: 7.0

Q: And the “herbicidal rating CHEAL” value ([10]; rate 0.0630 kg/ha)?
A: 7.0

Q: What about the “herbicidal rating ZEAMX” value (ZEAMX (Corn, Field) [11]; rate 0.0158 kg/ha) of the same compound?
A: 5.0

Q: What about the “herbicidal rating ZEAMX” value (ZEAMX (Corn, Field) [11]; rate 0.0315 kg/ha) of the same compound?
A: 6.5

Q: What about the “herbicidal rating ZEAMX” value (ZEAMX (Corn, Field) [11]; rate 0.0630 kg/ha) of the same compound?
A: 7.0

Q: What about the CASOB rating (CASOB (Sicklepod); 0.0313 kg/ha) of the same compound?
A: 1.5

Q: What about the CASOB rating (CASOB (Sicklepod); 0.0625 kg/ha) of the same compound?
A: 2.0

Q: And the CASOB rating (CASOB (Sicklepod); 0.1250 kg/ha)?
A: 4.0

Q: And the CASOB rating (CASOB (Sicklepod); 0.2500 kg/ha)?
A: 6.0

Q: And the “Preemergence herbicidal rating CASOB” value (CASOB (Sicklepod); rate 0.0156 kg/ha)?
A: 0.0

Q: And the CHEAL rating ([12]; 0.0313 kg/ha)?
A: 9.0

Q: And the CHEAL rating ([12]; 0.0625 kg/ha)?
A: 9.0

Q: And the CHEAL rating ([12]; 0.1250 kg/ha)?
A: 9.0

Q: And the CHEAL rating ([12]; 0.2500 kg/ha)?
A: 9.0

Q: And the “Preemergence herbicidal rating CHEAL” value ([12]; rate 0.0156 kg/ha)?
A: 8.0
